Reference: ChEMBL document CHEMBL3885881, “DrugMatrix”

Species on record: Rattus norvegicus
Assay: DrugMatrix - Regimen: Daily Repeat
Type: toxicity, organism-based, Sprague-Dawley
Parameters: regimen Daily Repeat, gender Male, age 6-8 weeks
Conditions: in vivo, po, route oral GAVAGE, vehicle .5 % CMC; for ABSOLUTE BASOPHIL / ABSOLUTE EOSINOPHIL / ABSOLUTE LYMPHOCYTE / ABSOLUTE MONOCYTE / ABSOLUTE SEGMENTED NEUTROPHIL / BASOPHIL / EOSINOPHIL / ERYTHROCYTE COUNT / HEMATOCRIT / HEMOGLOBIN / LEUKOCYTE COUNT / LYMPHOCYTE / MEAN CORPUSCULAR HEMOGLOBIN / MEAN CORPUSCULAR HEMOGLOBIN CONCENTRATION / MEAN CORPUSCULAR VOLUME / MONOCYTE / NEUTROPHIL / NUCLEATED RED BLOOD CELLS / PLATELET COUNT: tissue Blood; for ALANINE AMINOTRANSFERASE / ALBUMIN / ALKALINE PHOSPHATASE / ASPARTATE AMINOTRANSFERASE / BLOOD UREA NITROGEN / CARBON DIOXIDE / CHLORIDE / CHOLESTEROL / CREATINE PHOSPHOKINASE / CREATININE / GLUCOSE / LACTATE DEHYDROGENASE / LIPASE / PHOSPHORUS / POTASSIUM / SODIUM / TOTAL BILIRUBIN / TOTAL PROTEIN / URIC ACID: tissue Plasma
[1] = 10 mg/kg, 72 h, dose level Low, time 3 day
[2] = 10 mg/kg, 120 h, dose level Low, time 5 day
[3] = 1500 mg/kg, 72 h, dose level High, time 3 day
[4] = 1500 mg/kg, 120 h, dose level High, time 5 day

## NS(=O)(=O)c1cc2c(cc1Cl)NCNS2(=O)=O [HYDROCHLOROTHIAZIDE]
[1]
  ABSOLUTE BASOPHIL: 0 CELLS/uL
  ABSOLUTE EOSINOPHIL: 69 CELLS/uL
  ABSOLUTE LYMPHOCYTE: 10610.67 CELLS/uL
  ABSOLUTE MONOCYTE: 107.67 CELLS/uL
  ABSOLUTE SEGMENTED NEUTROPHIL: 3446 CELLS/uL
  BASOPHIL: 0%
  EOSINOPHIL: 0.33%
  ERYTHROCYTE COUNT: 5.79 x10E6/uL
  HEMATOCRIT: 34.73%
  HEMOGLOBIN: 13.77 G/DL
  LEUKOCYTE COUNT: 14.23 x10E3/uL
  LYMPHOCYTE: 77.33%
  MEAN CORPUSCULAR HEMOGLOBIN: 23.8 pg
  MEAN CORPUSCULAR HEMOGLOBIN CONCENTRATION: 39.67 G/DL
  MEAN CORPUSCULAR VOLUME: 60.07 fL
  MONOCYTE: 1%
  NEUTROPHIL: 21.33%
  NUCLEATED RED BLOOD CELLS: 0 /100WBC
  PLATELET COUNT: 1306 x10E3/uL
  ALANINE AMINOTRANSFERASE: 49 u/L
  ALBUMIN: 4.17 G/DL
  ALKALINE PHOSPHATASE: 352 u/L
  ASPARTATE AMINOTRANSFERASE: 90.67 u/L
  BLOOD UREA NITROGEN: 14.33 mg/dL
  CARBON DIOXIDE: 24.33 mmol/L
  CHLORIDE: 103 MEQ/L
  CHOLESTEROL: 65.67 mg/dL
  CREATINE PHOSPHOKINASE: 517.67 u/L
  CREATININE: 0.15 mg/dL
  GLUCOSE: 149.33 mg/dL
  LACTATE DEHYDROGENASE: 306.67 u/L
  LIPASE: 10 u/L
  PHOSPHORUS: 12.73 mg/dL
  POTASSIUM: 6.56 MEQ/L
  SODIUM: 144.2 MEQ/L
  TOTAL BILIRUBIN: 0.2 mg/dL
  TOTAL PROTEIN: 5.87 G/DL
  URIC ACID: 2.5 mg/dL
[2]
  ABSOLUTE BASOPHIL: 0 CELLS/uL
  ABSOLUTE EOSINOPHIL: 0 CELLS/uL
  ABSOLUTE LYMPHOCYTE: 12129.67 CELLS/uL
  ABSOLUTE MONOCYTE: 37.67 CELLS/uL
  ABSOLUTE SEGMENTED NEUTROPHIL: 1466 CELLS/uL
  BASOPHIL: 0%
  EOSINOPHIL: 0%
  ERYTHROCYTE COUNT: 5.92 x10E6/uL
  HEMATOCRIT: 36.07%
  HEMOGLOBIN: 14.23 G/DL
  LEUKOCYTE COUNT: 13.63 x10E3/uL
  LYMPHOCYTE: 89.67%
  MEAN CORPUSCULAR HEMOGLOBIN: 24.03 pg
  MEAN CORPUSCULAR HEMOGLOBIN CONCENTRATION: 39.47 G/DL
  MEAN CORPUSCULAR VOLUME: 60.83 fL
  MONOCYTE: 0.33%
  NEUTROPHIL: 10%
  NUCLEATED RED BLOOD CELLS: 0 /100WBC
  PLATELET COUNT: 1189.67 x10E3/uL
  ALANINE AMINOTRANSFERASE: 46 u/L
  ALBUMIN: 4.07 G/DL
  ALKALINE PHOSPHATASE: 390.67 u/L
  ASPARTATE AMINOTRANSFERASE: 89.67 u/L
  BLOOD UREA NITROGEN: 13.67 mg/dL
  CARBON DIOXIDE: 25.33 mmol/L
  CHLORIDE: 101.67 MEQ/L
  CHOLESTEROL: 62 mg/dL
  CREATINE PHOSPHOKINASE: 269.33 u/L
  CREATININE: 0.2 mg/dL
  GLUCOSE: 162.33 mg/dL
  LACTATE DEHYDROGENASE: 281.67 u/L
  LIPASE: 9 u/L
  PHOSPHORUS: 11.27 mg/dL
  POTASSIUM: 6.59 MEQ/L
  SODIUM: 143.33 MEQ/L
  TOTAL BILIRUBIN: 0.17 mg/dL
  TOTAL PROTEIN: 5.83 G/DL
  URIC ACID: 2 mg/dL
[3]
  ABSOLUTE BASOPHIL: 0 CELLS/uL
  ABSOLUTE EOSINOPHIL: 0 CELLS/uL
  ABSOLUTE LYMPHOCYTE: 11188.67 CELLS/uL
  ABSOLUTE MONOCYTE: 0 CELLS/uL
  ABSOLUTE SEGMENTED NEUTROPHIL: 1278 CELLS/uL
  BASOPHIL: 0%
  EOSINOPHIL: 0%
  ERYTHROCYTE COUNT: 5.96 x10E6/uL
  HEMATOCRIT: 35.57%
  HEMOGLOBIN: 13.93 G/DL
  LEUKOCYTE COUNT: 12.47 x10E3/uL
  LYMPHOCYTE: 90%
  MEAN CORPUSCULAR HEMOGLOBIN: 23.43 pg
  MEAN CORPUSCULAR HEMOGLOBIN CONCENTRATION: 39.2 G/DL
  MEAN CORPUSCULAR VOLUME: 59.7 fL
  MONOCYTE: 0%
  NEUTROPHIL: 10%
  NUCLEATED RED BLOOD CELLS: 0.67 /100WBC
  PLATELET COUNT: 1140 x10E3/uL
  ALANINE AMINOTRANSFERASE: 52.67 u/L
  ALBUMIN: 4.17 G/DL
  ALKALINE PHOSPHATASE: 353.33 u/L
  ASPARTATE AMINOTRANSFERASE: 88.33 u/L
  BLOOD UREA NITROGEN: 19 mg/dL
  CARBON DIOXIDE: 31 mmol/L
  CHLORIDE: 95.33 MEQ/L
  CHOLESTEROL: 70.67 mg/dL
  CREATININE: 0.2 mg/dL
  GLUCOSE: 159.33 mg/dL
  LACTATE DEHYDROGENASE: 413 u/L
  LIPASE: 9.67 u/L
  PHOSPHORUS: 11.27 mg/dL
  POTASSIUM: 5.57 MEQ/L
  SODIUM: 141.57 MEQ/L
  TOTAL BILIRUBIN: 0.17 mg/dL
  TOTAL PROTEIN: 5.8 G/DL
  URIC ACID: 1.43 mg/dL
[4]
  ABSOLUTE BASOPHIL: 0 CELLS/uL
  ABSOLUTE EOSINOPHIL: 84 CELLS/uL
  ABSOLUTE LYMPHOCYTE: 12827 CELLS/uL
  ABSOLUTE MONOCYTE: 104 CELLS/uL
  ABSOLUTE SEGMENTED NEUTROPHIL: 1585 CELLS/uL
  BASOPHIL: 0%
  EOSINOPHIL: 0.67%
  ERYTHROCYTE COUNT: 5.59 x10E6/uL
  HEMATOCRIT: 33.87%
  HEMOGLOBIN: 13.63 G/DL
  LEUKOCYTE COUNT: 14.6 x10E3/uL
  LYMPHOCYTE: 88%
  MEAN CORPUSCULAR HEMOGLOBIN: 24.4 pg
  MEAN CORPUSCULAR HEMOGLOBIN CONCENTRATION: 40.23 G/DL
  MEAN CORPUSCULAR VOLUME: 60.63 fL
  MONOCYTE: 0.67%
  NEUTROPHIL: 10.67%
  NUCLEATED RED BLOOD CELLS: 0 /100WBC
  PLATELET COUNT: 1221.67 x10E3/uL
  ALANINE AMINOTRANSFERASE: 64.67 u/L
  ALBUMIN: 4.33 G/DL
  ALKALINE PHOSPHATASE: 393 u/L
  ASPARTATE AMINOTRANSFERASE: 80 u/L
  BLOOD UREA NITROGEN: 20 mg/dL
  CARBON DIOXIDE: 31.33 mmol/L
  CHLORIDE: 97 MEQ/L
  CHOLESTEROL: 69 mg/dL
  CREATINE PHOSPHOKINASE: 157.67 u/L
  CREATININE: 0.2 mg/dL
  GLUCOSE: 153.33 mg/dL
  LACTATE DEHYDROGENASE: 110.33 u/L
  LIPASE: 10 u/L
  PHOSPHORUS: 12.1 mg/dL
  POTASSIUM: 6.18 MEQ/L
  SODIUM: 144.7 MEQ/L
  TOTAL BILIRUBIN: 0.2 mg/dL
  TOTAL PROTEIN: 5.97 G/DL
  URIC ACID: 1.57 mg/dL
